Assays:
[1] = test system: Plasmodium berghei; test: Antimalarial activity against Plasmodium berghei sporozoites expressing Luciferase infected in human HepG2 cells assessed as reduction in parasite growth incubated for 48 hrs by ONE-Glo luciferase assay; type: functional, organism-based
[2] = Inhibition of recombinant Plasmodium falciparum PKG using FAM-PKA peptide as fluorescent substrate preincubated for 15 mins followed by substrate addition measured after 1 hr by fluorescence polarization based IMAP assay
[3] = test system: Plasmodium falciparum; test: Antimalarial activity against Plasmodium falciparum expressing PKG T618Q mutant infected in human erythrocytes assessed as reduction in parasitemia incubated for 72 hrs by SYBR green I and Mitotracker deep red dye based flow cytometric analysis; type: functional, organism-based; conditions: Plasmodium falciparum, 72 h
[4] = species: Homo sapiens; test: Inhibition of human PKG using FAM-IP3R peptide as fluorescent substrate at 10 uM preincubated for 15 mins followed by substrate addition measured after 1 hr by fluorescence polarization based IMAP assay relative to control; conditions: time 75.0 min
[5] = test system: Plasmodium falciparum; test: Antimalarial activity against drug-sensitive Plasmodium falciparum 3D7 infected in human erythrocytes assessed as reduction in parasitemia incubated for 72 hrs by SYBR green I and Mitotracker deep red dye based flow cytometric analysis; type: functional, organism-based
[6] = Plasmodium berghei, HepG2, 48 h
[7] = Plasmodium falciparum, 3D7, 72 h

Row | SMILES | EC50 [1, 6] | IC50 [2] | pIC50 [2] | EC50 [3] | inhibition [4] | EC50 [5, 7] | EC50 [5] | EC50 [1]
1 | CN1CCC(c2cc(-c3ccncc3)c(-c3ccc(F)cc3)n2C)CC1.Cl.Cl | 2300 nM | 112 nM | 6.95 | 690 nM | 4% | 710 nM | – | –
2 | CN1CCC(c2cc(-c3ccncc3F)c(-c3ccc(F)cc3)[nH]2)CC1.Cl.Cl | 780 nM | 49 nM | 7.72 | 5220 nM | 18% | 300 nM | – | –
3 | CN(C)Cc1c(C2CCN(C)CC2)[nH]c(-c2ccc(F)cc2)c1-c1ccncc1.Cl.Cl.Cl | – | 3760 nM | 5.43 | – | 8% | – | – | –
4 | CN1CCC(c2cc(-c3ccnc(C(N)=O)c3)c(-c3ccc(F)cc3)[nH]2)CC1.Cl.Cl | – | 1810 nM | 5.74 | > 10000 nM | 14% | 3920 nM | – | –
5 | CN1C[C@@H]2C(c3cc(-c4ccncc4)c(-c4ccc(F)cc4)[nH]3)[C@@H]2C1.Cl.Cl (some centres not stated) | 670 nM | 207 nM | 6.59 | 900 nM | 6% | 640 nM | – | –
6 | CN1CCC(c2cc(-c3ccncc3)c(-c3ccsc3)[nH]2)CC1.Cl.Cl | 2400 nM | 176 nM | 6.89 | 1740 nM | 7% | 1020 nM | – | –
7 | Cc1cnccc1-c1cc(C2CCN(C)CC2)[nH]c1-c1ccc(F)cc1.Cl.Cl | 590 nM | 208 nM | 6.68 | 1130 nM | 12% | 1360 nM | – | –
8 | CN1CCC(c2[nH]c(-c3ccc(F)cc3)c(-c3ccncc3)c2Br)CC1.Cl.Cl | – | 107 nM | 6.97 | 1140 nM | 12% | 1550 nM | – | –
9 | CN1CCC(c2cc(-c3ccn4nnnc4c3)c(-c3ccc(F)cc3)[nH]2)CC1.Cl.Cl | > 20000 nM | 11600 nM | 4.94 | 2270 nM | 12% | 2750 nM | – | –
10 | Cc1cc(-c2cc(C3CCN(C)CC3)[nH]c2-c2ccc(F)cc2)ccn1.Cl.Cl | 3700 nM | 2550 nM | 5.59 | 960 nM | 9% | 2330 nM | – | –
11 | CN1CCC(c2cc(-c3ccnc(Br)c3)c(-c3ccc(F)cc3)[nH]2)CC1.Cl.Cl | – | 169 nM | 6.77 | 1930 nM | 36% | 1720 nM | – | –
12 | CN1CCC(c2cc(-c3ccncc3)c(-c3ccc(C(F)(F)F)cc3)[nH]2)CC1.Cl.Cl | 2600 nM | 329 nM | 6.94 | 800 nM | -2% | 530 nM | – | –
13 | C[C@H]1CN(C)CC[C@H]1c1cc(-c2ccncc2)c(-c2ccc(F)cc2)[nH]1.Cl.Cl (racemic) | 190 nM | 10 nM | 7.89 | 660 nM | 35% | – | 30 nM | –
14 | C[C@@H]1CN(C)CC[C@H]1c1cc(-c2ccncc2)c(-c2ccc(F)cc2)[nH]1.Cl.Cl (racemic) | – | 27 nM | 7.64 | 800 nM | 9% | 30 nM | – | 280 nM
15 | CN1CCC(C)(c2cc(-c3ccncc3)c(-c3ccc(F)cc3)[nH]2)CC1.Cl.Cl | 500 nM | 50 nM | 7.09 | 1070 nM | 35% | 550 nM | – | –
16 | CN1CCC(c2cc(-c3ccncc3C#N)c(-c3ccc(F)cc3)[nH]2)CC1.Cl.Cl | 340 nM | 35 nM | 7.46 | 4400 nM | 2% | 360 nM | – | –

Row | SMILES | EC50 [1, 6] | IC50 [2] | pIC50 [2] | EC50 [3] | inhibition [4] | EC50 [5, 7] | EC50 [5] | EC50 [1]
17 | C[C@@H]1C[C@H](c2cc(-c3ccncc3)c(-c3ccc(F)cc3)[nH]2)CCN1C.Cl.Cl (racemic) | 670 nM | 41 nM | 6.97 | 900 nM | 10% | 360 nM | – | –
18 | CN1CCC(c2cc(-c3ccncc3C(N)=O)c(-c3ccc(F)cc3)[nH]2)CC1.Cl.Cl | – | 4910 nM | 5.31 | – | 15% | > 20000 nM | – | –
19 | C=Cc1c(C2CCN(C)CC2)[nH]c(-c2ccc(F)cc2)c1-c1ccncc1.CC(=O)O | 410 nM | 246 nM | 6.61 | 1170 nM | -1% | 1080 nM | – | –
20 | CC(=O)O.CN1CCC(c2cc(-c3ccnc(C#N)c3)c(-c3ccc(F)cc3)[nH]2)CC1 | 2800 nM | 95 nM | 7.02 | 3730 nM | 9% | 420 nM | – | –
21 | CC(=O)O.CC(O)c1c(C2CCN(C)CC2)[nH]c(-c2ccc(F)cc2)c1-c1ccncc1 (configuration not stated) | – | 1430 nM | 5.84 | 3750 nM | 15% | 4260 nM | – | –
22 | CCOC(=O)c1c(C2CCN(C)CC2)[nH]c(-c2ccc(F)cc2)c1-c1ccncc1.Cl.Cl | 2600 nM | 1030 nM | 5.99 | 1630 nM | 0% | 2470 nM | – | –
23 | CN1CCC(c2[nH]c(-c3ccc(F)cc3)c(-c3ccncc3)c2C#N)CC1.Cl.Cl | 540 nM | 11 nM | 7.96 | 2450 nM | 19% | 900 nM | – | –
24 | CN1CCC(c2cc(-c3ccnc(N)c3)c(-c3ccc(F)cc3)[nH]2)CC1.Cl.Cl | 590 nM | 352 nM | 6.45 | 600 nM | -4% | 50 nM | – | –
25 | CN1CCC(c2[nH]c(-c3ccc(F)cc3)c(-c3ccncc3)c2C(N)=O)CC1.Cl.Cl | – | 4840 nM | 5.31 | – | 14% | > 20000 nM | – | –
26 | COc1ccc(-c2[nH]c(C3CCN(C)CC3)cc2-c2ccncc2)cc1.Cl.Cl | 240 nM | 30 nM | 7.2 | 1090 nM | 6% | 230 nM | – | –
27 | CCc1c(C2CCN(C)CC2)[nH]c(-c2ccc(F)cc2)c1-c1ccncc1.Cl.Cl | – | 1610 nM | 5.79 | – | 12% | – | – | –
28 | CN1CCC(c2cc(-c3ccncc3)c(-c3ccc(F)cc3)[nH]2)CC1.Cl | 270 nM | 31 nM | 7.61 | 1020 nM | 6% | 230 nM | – | –
29 | CN1CCC(c2cc(-c3ccncc3Br)c(-c3ccc(F)cc3)[nH]2)CC1.Cl.Cl | 340 nM | 35 nM | 7.46 | 1670 nM | 13% | 330 nM | – | –
30 | C[C@H]1C[C@H](c2cc(-c3ccncc3)c(-c3ccc(F)cc3)[nH]2)CCN1C.Cl.Cl (racemic) | 560 nM | 51 nM | 7.1 | 950 nM | 7% | 380 nM | – | –
31 | CN1C2CCC1CC(c1cc(-c3ccncc3)c(-c3ccc(F)cc3)[nH]1)C2.Cl.Cl (configuration not stated) | 490 nM | 132 nM | 7.09 | 670 nM | -9% | 350 nM | – | –
32 | CC(=O)O.CN1CCC(c2[nH]c(-c3ccc(F)cc3)c(-c3ccncc3)c2CO)CC1 | – | 226 nM | 6.65 | 4190 nM | 11% | 4610 nM | – | –

Source: ChEMBL document CHEMBL5528065, “Structure-Activity Relationship of a Pyrrole Based Series of PfPKG Inhibitors as Anti-Malarials” (J Med Chem, 2024)
